{
  "source": "paper PMC5218480",
  "about": "(PLoS ONE, 2017)",
  "test_system": "MV-4-11 cells",
  "assay": "Gene expression microarray analysis (Affymetrix PrimeView) and GSEA",
  "type": "cell-based, human",
  "set-up": "RFU PODN (11730768_x_at) / Fold change /veh PODN (11730768_x_at) / RFU LINC00158 (11744669_a_at) / Fold change /veh LINC00158 (11744669_a_at) / RFU DUSP10 (11751237_a_at) / Fold change /veh DUSP10 (11751237_a_at) / RFU ID3 (11757404_x_at) / Fold change /veh ID3 (11757404_x_at) / RFU PLEKHG5 (11737974_s_at) / Fold change /veh PLEKHG5 (11737974_s_at) / RFU LRRC4B (11730491_at) / Fold change /veh LRRC4B (11730491_at) / RFU GIMAP4 (11747438_a_at) / Fold change /veh GIMAP4 (11747438_a_at) / RFU KRT8 (11758183_x_at) / Fold change /veh KRT8 (11758183_x_at) / RFU CNN1 (11734310_a_at) / Fold change /veh CNN1 (11734310_a_at) / RFU VPS37D (11726825_at) / Fold change /veh VPS37D (11726825_at) / RFU C10orf10 (11716522_x_at) / Fold change /veh C10orf10 (11716522_x_at) / RFU KIR2DL2 /// KIR2DL4 /// KIR2DL5A /// KIR2DL5B /// KIR2DS1 /// KIR2DS2 /// KIR2DS3 /// KIR2DS4 /// KIR3DL3 /// KIR3DL3 /// KIR3DS1 (11738374_at) / Fold change /veh KIR2DL2 /// KIR2DL4 /// KIR2DL5A /// KIR2DL5B /// KIR2DS1 /// KIR2DS2 /// KIR2DS3 /// KIR2DS4 /// KIR3DL3 /// KIR3DL3 /// KIR3DS1 (11738374_at) / RFU C1QL1 (11718748_at) / Fold change /veh C1QL1 (11718748_at) / RFU TMPRSS4 (11747572_a_at) / Fold change /veh TMPRSS4 (11747572_a_at) / RFU HAMP (11756126_x_at) / Fold change /veh HAMP (11756126_x_at) / RFU RNFT2 (11725882_a_at) / Fold change /veh RNFT2 (11725882_a_at) / RFU NR4A2 (11747474_a_at) / Fold change /veh NR4A2 (11747474_a_at) / RFU ABCC12 (11746883_a_at) / Fold change /veh ABCC12 (11746883_a_at) / RFU TMEM136 (11760407_x_at) / Fold change /veh TMEM136 (11760407_x_at) / RFU CLDN22 /// WWC2 (11732394_at) / Fold change /veh CLDN22 /// WWC2 (11732394_at) / RFU HLA-DPB1 (11760878_x_at) / Fold change /veh HLA-DPB1 (11760878_x_at) / RFU SPINT1 (11716480_a_at) / Fold change /veh SPINT1 (11716480_a_at) / RFU GAP43 (11754022_s_at) / Fold change /veh GAP43 (11754022_s_at) / RFU A4GNT (11735810_at) / Fold change /veh A4GNT (11735810_at) / RFU PRB3 (11715151_x_at) / Fold change /veh PRB3 (11715151_x_at) / RFU TUBB4B (11761932_at) / Fold change /veh TUBB4B (11761932_at) / RFU CAPN14 (11732068_a_at) / Fold change /veh CAPN14 (11732068_a_at) / RFU TMCC2 (11721928_a_at) / Fold change /veh TMCC2 (11721928_a_at) / RFU IRGQ (11745062_a_at) / Fold change /veh IRGQ (11745062_a_at) / RFU FAM174B (11720279_a_at) / Fold change /veh FAM174B (11720279_a_at) / RFU TMPRSS4 (11748680_a_at) / Fold change /veh TMPRSS4 (11748680_a_at) / RFU FAM212B (11763350_a_at) / Fold change /veh FAM212B (11763350_a_at) / RFU PLEKHG5 (11743358_a_at) / Fold change /veh PLEKHG5 (11743358_a_at) / RFU ZSCAN30 (11745921_a_at) / Fold change /veh ZSCAN30 (11745921_a_at) / RFU CMKLR1 (11741424_a_at) / Fold change /veh CMKLR1 (11741424_a_at) / RFU LOC101060620 /// MAPK8IP1 (11723275_at) / Fold change /veh LOC101060620 /// MAPK8IP1 (11723275_at) / RFU SPTSSB (11747773_x_at) / Fold change /veh SPTSSB (11747773_x_at) / RFU PRSS12 (11739890_at) / Fold change /veh PRSS12 (11739890_at) / RFU BIN1 (11741810_x_at) / Fold change /veh BIN1 (11741810_x_at) / RFU WNT11 (11732464_a_at) / Fold change /veh WNT11 (11732464_a_at) / RFU C10orf10 (11716521_a_at) / Fold change /veh C10orf10 (11716521_a_at) / RFU C5orf56 (11738089_at) / Fold change /veh C5orf56 (11738089_at) / RFU CYB561 (11721691_x_at) / Fold change /veh CYB561 (11721691_x_at) / RFU ANKRD19P (11752326_a_at) / Fold change /veh ANKRD19P (11752326_a_at) / RFU OR2T12 /// OR2T33 /// OR2T8 (11738714_s_at) / Fold change /veh OR2T12 /// OR2T33 /// OR2T8 (11738714_s_at) / RFU VCAN (11748164_a_at) / Fold change /veh VCAN (11748164_a_at) / RFU JSRP1 (11732532_at) / Fold change /veh JSRP1 (11732532_at) / RFU KRTAP10-11 (11738290_x_at) / Fold change /veh KRTAP10-11 (11738290_x_at) / RFU MYO3A (11730013_a_at) / Fold change /veh MYO3A (11730013_a_at) / RFU EBF3 (11725865_a_at) / Fold change /veh EBF3 (11725865_a_at) / RFU CAMK2N1 (11719241_x_at) / Fold change /veh CAMK2N1 (11719241_x_at) / RFU C5orf56 (11738088_a_at) / Fold change /veh C5orf56 (11738088_a_at) / RFU OLFML3 (11715873_a_at) / Fold change /veh OLFML3 (11715873_a_at) / RFU LOC100653217 /// NTM (11731650_a_at) / Fold change /veh LOC100653217 /// NTM (11731650_a_at) / RFU MAPK11 (11762145_a_at) / Fold change /veh MAPK11 (11762145_a_at) / RFU FIZ1 (11724087_x_at) / Fold change /veh FIZ1 (11724087_x_at) / RFU OASL (11726364_x_at) / Fold change /veh OASL (11726364_x_at) / RFU SOX15 (11748057_x_at) / Fold change /veh SOX15 (11748057_x_at) / RFU CD79A (11719716_a_at) / Fold change /veh CD79A (11719716_a_at) / RFU HIST1H1D (11736915_at) / Fold change /veh HIST1H1D (11736915_at) / RFU CASKIN2 (11723855_a_at) / Fold change /veh CASKIN2 (11723855_a_at) / RFU LOC730098 (11760151_x_at) / Fold change /veh LOC730098 (11760151_x_at) / RFU OR4N2 (11742367_at) / Fold change /veh OR4N2 (11742367_at) / RFU PRRT2 (11749266_a_at) / Fold change /veh PRRT2 (11749266_a_at) / RFU SNX32 (11753110_a_at) / Fold change /veh SNX32 (11753110_a_at) / RFU CDHR5 (11726645_a_at) / Fold change /veh CDHR5 (11726645_a_at) / RFU RCAN1 (11760418_a_at) / Fold change /veh RCAN1 (11760418_a_at) / RFU FAM167A (11723789_a_at) / Fold change /veh FAM167A (11723789_a_at) / RFU FAM26E (11764081_at) / Fold change /veh FAM26E (11764081_at) / RFU ISYNA1 (11749810_s_at) / Fold change /veh ISYNA1 (11749810_s_at) / RFU ACY1 (11761880_at) / Fold change /veh ACY1 (11761880_at) / RFU 11764098_at / Fold change /veh 11764098_at / RFU SAMD14 (11745864_x_at) / Fold change /veh SAMD14 (11745864_x_at) / RFU NPB (11741838_a_at) / Fold change /veh NPB (11741838_a_at) / RFU TMPRSS6 (11731388_a_at) / Fold change /veh TMPRSS6 (11731388_a_at) / RFU KRTAP10-2 (11738614_at) / Fold change /veh KRTAP10-2 (11738614_at) / RFU ARHGAP8 /// PRR5-ARHGAP8 (11727945_x_at) / Fold change /veh ARHGAP8 /// PRR5-ARHGAP8 (11727945_x_at) / RFU KRTAP5-7 /// NADSYN1 (11734609_at) / Fold change /veh KRTAP5-7 /// NADSYN1 (11734609_at) / RFU RASL12 (11751679_a_at) / Fold change /veh RASL12 (11751679_a_at) / RFU CDKN2B (11736163_a_at) / Fold change /veh CDKN2B (11736163_a_at) / RFU PRF1 (11729649_at) / Fold change /veh PRF1 (11729649_at) / RFU, ZNF638 /// ZNF638-IT1 / Fold change vs veh, ZNF638 /// ZNF638-IT1 / RFU, PANK3 / Fold change vs veh, PANK3 / RFU, SH3YL1 / Fold change vs veh, SH3YL1 / RFU, ZEB2 / Fold change vs veh, ZEB2 / RFU, NRIP1 / Fold change vs veh, NRIP1 / RFU, PTTG1IP / Fold change vs veh, PTTG1IP / RFU, CAPN2 / Fold change vs veh, CAPN2 / RFU, MED14 / Fold change vs veh, MED14 / RFU, SNORA58 / Fold change vs veh, SNORA58 / RFU, C1orf63 / Fold change vs veh, C1orf63 / RFU, LRRFIP1 / Fold change vs veh, LRRFIP1 / RFU, NDUFAF7 / Fold change vs veh, NDUFAF7 / RFU, SLC12A2 / Fold change vs veh, SLC12A2 / RFU, IBTK / Fold change vs veh, IBTK / RFU, ESF1 / Fold change vs veh, ESF1 / Fold change vs veh, TMEM50B / RFU, TAOK1 / Fold change vs veh, TAOK1 / RFU, ACBD3 / Fold change vs veh, ACBD3 / RFU, TMA16 / Fold change vs veh, TMA16 / RFU, RWDD3 / Fold change vs veh, RWDD3 / RFU, BCAT1 / Fold change vs veh, BCAT1 / RFU, EDEM3 / Fold change vs veh, EDEM3 / RFU, TMEM33 / Fold change vs veh, TMEM33 / RFU, WDR75 / Fold change vs veh, WDR75 / RFU, AHCTF1 / Fold change vs veh, AHCTF1 / RFU, TFRC / Fold change vs veh, TFRC / RFU, ZDHHC17 / Fold change vs veh, ZDHHC17 / RFU, NOM1 / Fold change vs veh, NOM1 / RFU, ARL8B / Fold change vs veh, ARL8B / RFU, ZBTB11 / Fold change vs veh, ZBTB11 / RFU, TAMM41 / Fold change vs veh, TAMM41 / RFU, KIAA1704 /// LOC100996395 / Fold change vs veh, KIAA1704 /// LOC100996395 / RFU, ING1 / Fold change vs veh, ING1 / RFU, TRMT61B / Fold change vs veh, TRMT61B / RFU, FUBP3 / Fold change vs veh, FUBP3 / RFU, TP53 / Fold change vs veh, TP53 / RFU, TNKS2 / Fold change vs veh, TNKS2 / RFU, ZFP14 / Fold change vs veh, ZFP14 / RFU, ACTR2 / Fold change vs veh, ACTR2 / RFU, PPP3R1 / Fold change vs veh, PPP3R1 / RFU, PIK3R1 / Fold change vs veh, PIK3R1 / RFU, HNRNPA1 / Fold change vs veh, HNRNPA1 / RFU, RNF170 / Fold change vs veh, RNF170 / RFU, ZNF28 / Fold change vs veh, ZNF28 / RFU, RNGTT / Fold change vs veh, RNGTT / RFU, OGT / Fold change vs veh, OGT / RFU, BRD1 / Fold change vs veh, BRD1 / RFU, MARS / Fold change vs veh, MARS / RFU, ZNF655 / Fold change vs veh, ZNF655 / RFU, FAHD1 / Fold change vs veh, FAHD1 / RFU, BDP1 / Fold change vs veh, BDP1 / RFU, LRRCC1 / Fold change vs veh, LRRCC1 / RFU, ARID1A / Fold change vs veh, ARID1A / RFU, ZNF146 / Fold change vs veh, ZNF146 / RFU, ZNF330 / Fold change vs veh, ZNF330 / RFU, GPN3 / Fold change vs veh, GPN3 / RFU, C9orf123 / Fold change vs veh, C9orf123 / RFU, N4BP2L2 / Fold change vs veh, N4BP2L2 / RFU, ARFIP1 / Fold change vs veh, ARFIP1 / RFU, FAM179B / Fold change vs veh, FAM179B / RFU, BCL10 / Fold change vs veh, BCL10 / RFU, UHRF1BP1L / Fold change vs veh, UHRF1BP1L / RFU, BET1 / Fold change vs veh, BET1 / RFU, CNOT2 / Fold change vs veh, CNOT2 / RFU, ZNF268 / Fold change vs veh, ZNF268 / Fold change vs veh, ZNF507 / RFU, DGCR2 / Fold change vs veh, DGCR2 / RFU, WDSUB1 / Fold change vs veh, WDSUB1 / Fold change vs veh, HSP90B1 /// MIR3652 / RFU, ADSS / Fold change vs veh, ADSS / RFU, GK / Fold change vs veh, GK / RFU, ZNF148 / Fold change vs veh, ZNF148 / RFU, TAF9 / Fold change vs veh, TAF9 / RFU, SLC1A5 / Fold change vs veh, SLC1A5 / RFU, SLMO2 / Fold change vs veh, SLMO2 / RFU, ABCC4 / Fold change vs veh, ABCC4 / RFU, LOC101060439 /// RAP1B / Fold change vs veh, LOC101060439 /// RAP1B / RFU, RFX7 / Fold change vs veh, RFX7 / RFU, GTPBP10 / Fold change vs veh, GTPBP10 / RFU, CNEP1R1 / Fold change vs veh, CNEP1R1 / RFU, BIVM-ERCC5 /// ERCC5 / Fold change vs veh, BIVM-ERCC5 /// ERCC5 / RFU, ILF3 / Fold change vs veh, ILF3 / RFU 11762660_at / Fold change /veh 11762660_at / RFU VCAN (11757783_s_at) / Fold change /veh VCAN (11757783_s_at) / RFU DDX43 (11728927_at) / Fold change /veh DDX43 (11728927_at) / RFU KRT8 (11758188_x_at) / Fold change /veh KRT8 (11758188_x_at) / RFU NKD1 (11759106_at) / Fold change /veh NKD1 (11759106_at) / RFU SRD5A1 (11742802_a_at) / Fold change /veh SRD5A1 (11742802_a_at) / RFU TPSAB1 /// TPSB2 (11721975_s_at) / Fold change /veh TPSAB1 /// TPSB2 (11721975_s_at) / RFU GSTM3 (11746129_a_at) / Fold change /veh GSTM3 (11746129_a_at) / RFU IL23R (11737362_x_at) / Fold change /veh IL23R (11737362_x_at) / RFU TMEM51 (11727254_a_at) / Fold change /veh TMEM51 (11727254_a_at) / RFU PIWIL2 (11732686_x_at) / Fold change /veh PIWIL2 (11732686_x_at) / RFU ORM1 (11744905_x_at) / Fold change /veh ORM1 (11744905_x_at) / RFU CCDC152 (11743942_at) / Fold change /veh CCDC152 (11743942_at) / RFU ECM1 (11717891_a_at) / Fold change /veh ECM1 (11717891_a_at) / RFU IL23R (11748794_a_at) / Fold change /veh IL23R (11748794_a_at) / RFU TNFAIP8L3 (11732012_x_at) / Fold change /veh TNFAIP8L3 (11732012_x_at) / RFU MBOAT4 (11741988_at) / Fold change /veh MBOAT4 (11741988_at) / RFU 11764193_at / Fold change /veh 11764193_at / RFU TMEM53 (11763286_at) / Fold change /veh TMEM53 (11763286_at) / RFU MAGEB2 (11727129_at) / Fold change /veh MAGEB2 (11727129_at) / RFU TMEM200A (11744735_a_at) / Fold change /veh TMEM200A (11744735_a_at) / RFU CCDC152 (11751479_a_at) / Fold change /veh CCDC152 (11751479_a_at) / RFU FAM211A (11726209_a_at) / Fold change /veh FAM211A (11726209_a_at) / RFU RGS16 (11746705_a_at) / Fold change /veh RGS16 (11746705_a_at) / RFU VCAN (11755009_s_at) / Fold change /veh VCAN (11755009_s_at) / RFU RHOB (11743442_s_at) / Fold change /veh RHOB (11743442_s_at) / RFU RGS16 (11720943_a_at) / Fold change /veh RGS16 (11720943_a_at) / RFU RGS16 (11720944_at) / Fold change /veh RGS16 (11720944_at) / RFU, VPS4B / Fold change vs veh, VPS4B / RFU, CREB1 / Fold change vs veh, CREB1 / RFU, DNAJC13 / Fold change vs veh, DNAJC13 / RFU, GNAQ / Fold change vs veh, GNAQ / RFU, CDK5R1 / Fold change vs veh, CDK5R1 / RFU, ZRANB3 / Fold change vs veh, ZRANB3 / RFU, CUL4A / Fold change vs veh, CUL4A / RFU, CCNY / Fold change vs veh, CCNY / RFU, UFL1 / Fold change vs veh, UFL1 / RFU, COG3 / Fold change vs veh, COG3 / RFU, DIAPH2 / Fold change vs veh, DIAPH2 / RFU, SKA2 / Fold change vs veh, SKA2 / RFU, AFF3 / Fold change vs veh, AFF3 / RFU, LMF1 / Fold change vs veh, LMF1 / RFU, IPO11 / Fold change vs veh, IPO11 / RFU, DFFB / Fold change vs veh, DFFB / RFU, FOXP1 / Fold change vs veh, FOXP1 / RFU, CARD8 / Fold change vs veh, CARD8 / RFU, STRN3 / Fold change vs veh, STRN3 / RFU, ADK / Fold change vs veh, ADK / RFU, RASSF2 / Fold change vs veh, RASSF2 / RFU, WIPF1 / Fold change vs veh, WIPF1 / RFU, LARP1B / Fold change vs veh, LARP1B / RFU, RASA1 / Fold change vs veh, RASA1 / RFU, RB1 / Fold change vs veh, RB1 / RFU, PPFIA1 / Fold change vs veh, PPFIA1 / RFU, MAT2A / Fold change vs veh, MAT2A / RFU, CCT5 / Fold change vs veh, CCT5 / RFU, WDR92 / Fold change vs veh, WDR92 / RFU, CUX1 / Fold change vs veh, CUX1 / RFU, TTC7A / Fold change vs veh, TTC7A / RFU, TMEM135 / Fold change vs veh, TMEM135 / RFU, DEPTOR / Fold change vs veh, DEPTOR / RFU, CPM / Fold change vs veh, CPM / RFU, DNAJB6 / Fold change vs veh, DNAJB6 / RFU, CACNA2D3 / Fold change vs veh, CACNA2D3 / RFU, DTX4 / Fold change vs veh, DTX4 / RFU, TFCP2 / Fold change vs veh, TFCP2 / RFU, GMCL1 /// GMCL1P1 / Fold change vs veh, GMCL1 /// GMCL1P1 / RFU, AEBP2 / Fold change vs veh, AEBP2 / RFU, SNHG1 /// SNORD22 /// SNORD25 /// SNORD26 /// SNORD27 /// SNORD28 /// SNORD29 /// SNORD31 / Fold change vs veh, SNHG1 /// SNORD22 /// SNORD25 /// SNORD26 /// SNORD27 /// SNORD28 /// SNORD29 /// SNORD31 / Fold change (Aza/veh), C12orf56 (ProbeSet 11735607_a_at) / Fold change (ACY-1035/veh), C12orf56 (ProbeSet 11735607_a_at) / Fold change (Aza/veh), FGFR1OP (ProbeSet 11751329_s_at) / Fold change (ACY-1035/veh), FGFR1OP (ProbeSet 11751329_s_at) / Fold change (Aza/veh), VPS36 (ProbeSet 11739960_a_at) / Fold change (ACY-1035/veh), VPS36 (ProbeSet 11739960_a_at) / RFU SYPL1 (11715823_x_at) / Fold change /veh SYPL1 (11715823_x_at) / RFU IGFBP7 (11715501_s_at) / Fold change /veh IGFBP7 (11715501_s_at) / RFU REEP3 (11722064_at) / Fold change /veh REEP3 (11722064_at) / RFU IGLL1 (11728026_x_at) / Fold change /veh IGLL1 (11728026_x_at): dose or concentration left out as unconfirmed",
  "conditions": "MV-4-11 cells, 48 hours",
  "data": [
    {"smiles": "Nc1ncn([C@@H]2O[C@H](CO)[C@@H](O)[C@H]2O)c(=O)n1", "note": "[azacitidine]", "values": [
      {"measurement": "RFU OASL (11726364_x_at)", "result": 34.50, "unit": "RFU"}
    ]}
  ]
}
